Consider 53 molecules from US20040044075A1, “Alpha acyloxyacetamides for kallikrein and urokinase inhibition” (Genzyme Corporation, priority 2002, published 2004).

As a reminder, the IC50 is the point on the concentration scale where inhibition reaches its midpoint.

Chain of Kallikrein (P03952 whole entry): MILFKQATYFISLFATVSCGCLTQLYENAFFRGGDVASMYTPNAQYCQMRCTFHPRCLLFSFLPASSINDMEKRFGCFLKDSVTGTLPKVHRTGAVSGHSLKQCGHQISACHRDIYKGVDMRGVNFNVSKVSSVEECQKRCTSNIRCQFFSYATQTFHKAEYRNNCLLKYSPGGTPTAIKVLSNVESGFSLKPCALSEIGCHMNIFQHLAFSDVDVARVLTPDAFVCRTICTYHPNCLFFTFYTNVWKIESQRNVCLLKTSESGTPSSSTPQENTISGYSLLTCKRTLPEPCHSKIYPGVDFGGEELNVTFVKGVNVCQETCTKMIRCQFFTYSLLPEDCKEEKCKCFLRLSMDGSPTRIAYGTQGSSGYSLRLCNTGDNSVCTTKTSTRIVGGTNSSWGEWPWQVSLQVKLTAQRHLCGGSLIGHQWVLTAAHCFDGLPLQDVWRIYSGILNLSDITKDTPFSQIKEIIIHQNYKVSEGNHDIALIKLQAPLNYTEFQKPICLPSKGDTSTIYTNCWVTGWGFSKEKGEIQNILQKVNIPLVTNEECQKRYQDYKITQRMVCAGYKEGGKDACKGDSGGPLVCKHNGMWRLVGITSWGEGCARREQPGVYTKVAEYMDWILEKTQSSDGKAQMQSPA

In one assay the target is Kallikrein (Homo sapiens, UniProt P03952). Put plainly: Kallikrein inhibition assay (fluorometric, H-Pro-Phe-Arg-AMC substrate). The following applies: 24° C, HEPES pH 7.5, 5% DMSO, fluorescence after ten minutes. The class given is biochemical. The protocol:
Kallikrein activity was assayed fluorometrically with an aminomethyl coumarin-containing (AMC-containing) substrate according to procedures described in Zimmerman et al., Proc. Natl. Acad. Sci. USA 75:750 (1978), the entire teachings of which are incorporated herein by reference. Specifically, enzyme assays with varying concentrations of the fluorogenic substrate H-Pro-Phe-Arg-AMC were conducted at 24° C in 0.05 M 4-(2-hydroxyethyl)-piperazineethanesulfonic acid (HEPES) buffer, pH 7.5/5% (vol/vol) dimethyl sulfoxide. The final volume was 0.1 ml in each assay. Fluorescence was read after ten minutes at 360 nm (activation wavelength) and 460 nm (emission wavelength).
For the molecule `COc1ccc(OC)c(C(=O)CCC(=O)OC(C(=O)NC2CC2)c2ccc(Br)cc2)c1` (stereo not shown) [Compound (1)], the IC50 was 0.174 µM.
Still for that read-out and setting: the same measure for `N#Cc1ccc(C(OC(=O)Cc2c[nH]c3ccc(Br)cc23)C(=O)NC2CC2)cc1` (stereo not shown) [Compound (2)]: 0.167 µM.
The same measure, in the same setting: the same measure for `N#Cc1ccc(C(OC(=O)CCC2CCCCC2)C(=O)NC2CC2)cc1` (stereo not shown) [Compound (3)]: 1.06 µM.
Same read-out and setting: the same measure for `COC(=O)c1ccc(C(OC(=O)CCC(=O)c2ccccc2)C(=O)NCc2cc(OC)c(OC)c(OC)c2)cc1` (stereo not shown) [Compound (11)]: 0.442 µM; for `COc1cc(CNC(=O)C(OC(=O)CCC(=O)c2ccccc2)c2ccccc2)cc(OC)c1OC` (stereo not shown) [Compound (12)]: 0.737 µM.
`COc1cc(CNC(=O)C(OC(=O)CCC(=O)c2ccccc2)c2ccc(SC)cc2)cc(OC)c1OC` (stereo not shown) [Compound (13)] gave an IC50 of 0.874 µM.
Still for that read-out and setting: the same measure for `COc1cc(CNC(=O)C(OC(=O)CCC(=O)c2ccccc2)c2ccc(S(C)(=O)=O)cc2)cc(OC)c1OC` (stereo not shown) [Compound (14)]: 1.18 µM.
Still for that read-out and setting: the same measure for `COc1cc(CNC(=O)C(OC(=O)CCOc2ccccc2)c2cccc(C#N)c2)cc(OC)c1OC` (stereo not shown) [Compound (15)]: 0.577 µM; for `COc1ccc(OC)c(C(=O)CCC(=O)OC(C(=O)Nc2ccc(OC)c(OC)c2)c2cccc(C#N)c2)c1` (stereo not shown) [Compound (16)]: 0.253 µM; for `COc1cc(CNC(=O)C(OC(=O)CSc2nccc(C)n2)c2cccc(C#N)c2)cc(OC)c1OC` (stereo not shown) [Compound (17)]: 0.384 µM.
Still for that read-out and setting: the same measure for `COc1cc(CNC(=O)C(OC(=O)CSc2nc(C)cc(C)n2)c2cccc(C#N)c2)cc(OC)c1OC` (stereo not shown) [Compound (18)]: 6.47 µM; for `COc1cccc(OCCC(=O)OC(C(=O)NCc2cc(OC)c(OC)c(OC)c2)c2cccc(C#N)c2)c1` (stereo not shown) [Compound (19)]: 1.69 µM; for `COc1cc(CNC(=O)C(OC(=O)CSc2ncccn2)c2cccc(C#N)c2)cc(OC)c1OC` (stereo not shown) [Compound (20)]: 1.48 µM.
`COc1cc(CNC(=O)C(OC(=O)CCCc2ccccc2)c2cccc(C#N)c2)cc(OC)c1OC` (stereo not shown) [Compound (21)]: half-maximal inhibition (IC50) was put at 1.18 µM.
Same read-out and setting: the same measure for `COc1ccc(CC(=O)OC(C(=O)Nc2ccc(OC)c(OC)c2)c2ccc(C#N)cc2)cc1` (stereo not shown) [Compound (22)]: 0.428 µM; for `COc1ccc(CC(=O)OC(C(=O)NCc2cc(OC)c(OC)c(OC)c2)c2ccc(C#N)cc2)cc1` (stereo not shown) [Compound (23)]: 0.576 µM; for `COc1ccc(OC)c(C(=O)CCC(=O)OC(C(=O)Nc2ccc(OC)c(OC)c2)c2ccc(Br)cc2)c1` (stereo not shown) [Compound (25)]: 0.275 µM.
Same read-out and setting: the same measure for `COc1ccc(CC(=O)OC(C(=O)Nc2ccc(OC)c(OC)c2)c2ccc(Br)cc2)cc1` (stereo not shown) [Compound (28)]: 0.68 µM.
Take `COc1ccc(NC(=O)C(OC(=O)CCOc2ccccc2)c2ccc(Br)cc2)cc1` (stereo not shown) [Compound (30)]: the IC50 was found to be 0.714 µM.
In turn, `COc1ccc(CCNC(=O)C(OC(=O)CSc2ncccn2)c2ccc(C#N)cc2)cc1` (stereo not shown) [Compound (31)] had a concentration for half-maximal inhibition (IC50) of 0.543 µM.
For the molecule `O=C(CCOc1ccccc1)OC(C(=O)Nc1ccc2ncccc2c1)c1ccc(Br)cc1` (stereo not shown) [Compound (32)], the IC50 is 1.34 µM.
The same measure, in the same setting: the same measure for `NC(=O)c1ccc(NC(=O)C(OC(=O)CCOc2ccccc2)c2ccc(Br)cc2)cc1` (stereo not shown) [Compound (33)]: 0.459 µM; for `COc1ccc(OC)c(C(=O)CCC(=O)OC(C(=O)NCc2cc(OC)c(OC)c(OC)c2)c2ccc(C(F)(F)F)cc2)c1` (stereo not shown) [Compound (34)]: 0.731 µM.
As for `COc1ccc(CC(=O)OC(C(=O)NC2CC2)c2ccc(C#N)cc2)cc1` (stereo not shown) [Compound (35)], 0.391 µM corresponded to half-maximal inhibition (IC50).
Regarding `COc1cc(CNC(=O)C(OC(=O)c2csc3cc4c(cc23)OC(C)(C)O4)c2ccc(Br)cc2)cc(OC)c1OC` (stereo not shown) [Compound (36)], inhibition was half-maximal at 3.67 µM (IC50).
Molecule `COc1ccc(OC)c(C(=O)CCC(=O)OC(C(=O)NCc2cc(OC)c(OC)c(OC)c2)c2ccccc2)c1` (stereo not shown) [Compound (37)] yielded an IC50 of 1.67 µM.
Turning to `N#Cc1ccc(C(OC(=O)Cc2c[nH]c3ccccc23)C(=O)NC2CC2)cc1` (stereo not shown) [Compound (38)], the IC50 worked out at 3.77 µM.
`COc1cc(CNC(=O)C(OC(=O)Cc2c[nH]c3ccc(Br)cc23)c2ccc(Br)cc2)cc(OC)c1OC` (stereo not shown) [Compound (39)] gave an IC50 of 2.68 µM.

Another assay deals with male rats. Put plainly: Rat model of inflammatory bowel disease (DNBS-induced distal colitis). The following applies: 500 mg/kg PO × 7, with DNBS; rats. The class given is in vivo. The procedure: Compounds were tested according to procedures described in C M Hogaboam et al., Eur. J. Pharmacol. 309:261 (1996), the entire teachings of which are incorporated herein by reference. Groups of 3 overnight fasted male rats weighing 150±10 grams were used. Distal colitis was induced by intra-colonic instillation of 0.5 ml/rat of DNBS (2,4-dinitrobenzene sulfonic acid, 60 mg/ml in ethanol 30%) after which air (2 ml) was gently injected through the cannula to ensure that the solution remained in the colon. Test compound was administered orally 24 and 2 hours before DNBS instillation and then daily for 5 days in total of 7 doses. The animals were sacrificed 24 hours after the final dose of test compound administration and each colon was removed and weighed. A 30 percent or more (≧30%) inhibition in net increase of colon to 100 grams body weight ratio, relative to vehicle-control-2 group is considered significant.
`O=C(O)c1cc(/N=N/c2ccc(S(=O)(=O)Nc3ccccn3)cc2)ccc1O` [Sulfasalazine, reference compound]: the “Ave. (average final weight of the colon in grams)” value was found to be 0.865 grams, the “Inhibition (percent inhibition in net increase of colon weight relative to control Group 2)” value was found to be 32% and the “Net Inc. (net increase in weight of the colon relative to control Group 1)” value is listed as 0.378 grams.

The next assay addresses Urokinase (Homo sapiens, UniProt P00749). Put plainly: Urokinase assay (fluorometric, Cbz-Gly-Gly-Arg-AMC substrate). It counts as biochemical. Particulars: 24° C, HEPES pH 7.5, 5% DMSO, fluorescence after ten minutes; read-out: IC50 (μM), urokinase inhibition. The protocol: Urokinase activity was assayed fluorometrically with an aminomethyl coumarin-containing (AMC-containing) substrate according to procedures described in Zimmerman et al, Proc. Natl. Acad. Sci. USA 75:750 (1978), the entire teachings of which are incorporated herein by reference. Specifically, enzyme assays with varying concentrations of the fluorogenic substrate Cbz-Gly-Gly-Arg-AMC were conducted at 24° C. in 0.05 M 4-(2-hydroxyethyl)-piperazineethanesulfonic acid (HEPES) buffer, pH 7.5/5% (vol/vol) dimethyl sulfoxide; the final volume was 0.1 ml in each assay.
Fluorescence was read after ten minutes at 360 nm (activation wavelength) and 460 nm (emission wavelength).
Take `N#Cc1ccc(C(OC(=O)Cc2c[nH]c3ccccc23)C(=O)NC2CC2)cc1` (stereo not shown) [Compound (4)]: the IC50 stood at 0.086 µM.
On the same count and under the same terms, the same measure for `N#Cc1ccc(C(OC(=O)Cc2c[nH]c3ccc(Br)cc23)C(=O)NC2CC2)cc1` (stereo not shown) [Compound (5)]: 0.029 µM; for `N#Cc1ccc(C(OC(=O)CSc2ncccn2)C(=O)NC2CC2)cc1` (stereo not shown) [Compound (6)]: 0.032 µM.
Regarding `COc1ccc(CC(=O)OC(C(=O)NC2CC2)c2ccc(C#N)cc2)cc1` (stereo not shown) [Compound (7)], the IC50 was determined as 0.11 µM.
As to `COc1ccc(CCNC(=O)C(OC(=O)CSc2ncccn2)c2ccc(C#N)cc2)cc1` (stereo not shown) [Compound (8)], the IC50 turned out to be 0.112 µM.
Still for that read-out and setting: the same measure for `COc1cc(CNC(=O)C(OC(=O)CSc2ncccn2)c2cccc(C#N)c2)cc(OC)c1OC` (stereo not shown) [Compound (9)]: 0.923 µM; for `COc1ccc(CC(=O)OC(C(=O)NCc2ccc3c(c2)OCO3)c2ccc(C#N)cc2)cc1` (stereo not shown) [Compound (10)]: 0.783 µM.
Still for that read-out and setting: the same measure for `COc1cc(CNC(=O)C(OC(=O)CCOc2ccccc2)c2cccc(C#N)c2)cc(OC)c1OC` (stereo not shown) [Compound (40)]: 6.09 µM; for `COc1ccc(CC(=O)OC(C(=O)Nc2ccc(OC)c(OC)c2)c2ccc(C#N)cc2)cc1` (stereo not shown) [Compound (41)]: 2.32 µM; for `COc1ccc(CC(=O)OC(C(=O)NCc2cc(OC)c(OC)c(OC)c2)c2ccc(C#N)cc2)cc1` (stereo not shown) [Compound (42)]: 1.97 µM.
The same measure, in the same setting: the same measure for `COc1ccc(NC(=O)C(OC(=O)CSc2ncccn2)c2ccc(Br)cc2)cc1OC` (stereo not shown) [Compound (43)]: 3.39 µM.
On to `COc1cc(CNC(=O)C(OC(=O)CCC2CCCCC2)c2cccc(C#N)c2)cc(OC)c1OC` (stereo not shown) [Compound (44)], for which the IC50 turned out to be 1.78 µM.
The same measure, in the same setting: the same measure for `COc1ccc(CCNC(=O)C(OC(=O)CSc2ncccn2)c2ccc(Br)cc2)cc1` (stereo not shown) [Compound (45)]: 1.41 µM.
Still for that read-out and setting: the same measure for `COc1ccc(CCNC(=O)C(OC(=O)CSc2ncccn2)c2ccc3ccccc3c2)cc1` (stereo not shown) [Compound (46)]: 2.93 µM; for `COc1ccc(CCNC(=O)C(OC(=O)CSc2ncccn2)c2ccc(OC)cc2)cc1` (stereo not shown) [Compound (47)]: 2.38 µM; for `COc1ccc(CCNC(=O)C(OC(=O)CSc2ncccn2)c2ccc(C(F)(F)F)cc2)cc1` (stereo not shown) [Compound (48)]: 5.38 µM.
Same read-out and setting: the same measure for `COc1ccc(C(OC(=O)CSc2ncccn2)C(=O)NCc2ccc3c(c2)OCO3)cc1` (stereo not shown) [Compound (49)]: 1.37 µM.
Take `O=C(CSc1ncccn1)OC(C(=O)NCc1ccc2c(c1)OCO2)c1ccc(C(F)(F)F)cc1` (stereo not shown) [Compound (50)]: the 50% inhibitory concentration (IC50) amounted to 3.1 µM.
On the same count and under the same terms, the same measure for `COc1ccc(CCNC(=O)C(OC(=O)Cc2ccc(OC)cc2)c2ccc(C#N)cc2)cc1` (stereo not shown) [Compound (51)]: 1.22 µM; for `CCSCCNC(=O)C(OC(=O)Cc1ccc(OC)cc1)c1ccc(C#N)cc1` (stereo not shown) [Compound (52)]: 0.628 µM; for `CCOC(=O)CCNC(=O)C(OC(=O)Cc1ccc(OC)cc1)c1ccc(C#N)cc1` (stereo not shown) [Compound (53)]: 1.06 µM.
Still for that read-out and setting: the same measure for `COc1ccc(CC(=O)OC(C(=O)NC2CC2)c2ccccc2)cc1` (stereo not shown) [Compound (54)]: 0.814 µM; for `N#Cc1ccc(C(OC(=O)CCC2CCCC2)C(=O)NC2CC2)cc1` (stereo not shown) [Compound (55)]: 0.151 µM.
Turning to `N#Cc1ccc(C(OC(=O)CCC2CCCCC2)C(=O)NC2CC2)cc1` (stereo not shown) [Compound (56)], the IC50 stood at 0.055 µM.
